Reference: patent publication US8445510B2, “Fused bicyclic kinase inhibitors” (OSI Pharmaceuticals, LLC, priority 2011, dated 2013)

Experiments:
Type in all cases: cell-based
[1] = system: MKN45 cells; assay: MKN45 cell proliferation assay (CellTiter-Glo); conditions: Homo sapiens, MKN-45, 72 h; MKN45 cell line; 3 days incubation; at least duplicate experiments; read-out: Prolif. IC50
Description: The effect of inhibitors on the proliferation of MKN45 cells was determined using the following protocol. MKN45 cells were plated in Corning 3917 96-well white tissue culture treated plates in growth medium (RPMI, 10% FCS) at a density of 5000 cells/well in a total volume of 135 μL and incubated at 37° C., 5% CO2, 95% humidity overnight. The following day, one-tenth volume of a 10× concentration of compounds was added to the wells in an 8-point dilution series. The dilution series was composed of an initial 1:5 dilution of a 10 mM stock of compound in DMSO, followed by serial 1:4 dilutions in DMSO, then a 1:20 dilution in growth medium prior to the 1:10 dilution into the cell plate. […] The typical dilution range is 10 μM to 0.6 nM. Once the compound was added to the cells, plates were incubated for 3 days at 37° C., 5% CO2 at 95% humidity. On the third day, after allowing all cells and reagents to come to room temperature, 25 μL of CellTiter-Glo reagent (Promega #G7573) was added to the wells. Plates were shaken on a platform for 10 minutes prior to reading luminescence for 0.1 seconds. The signal of the control wells was taken as 100% growth and growth inhibition was expressed as percent of control. IC50 values were determined from the percent of control data using a standard four-parameter model.
(§1) The IC50 values of exemplary compounds of the present invention determined in a cell proliferation assay using the MKN45 cell line according to the procedures described herein in at least duplicate experiments are abbreviated as follows and are shown in Table 2: A, IC50≦0.05 μM; B, 0.05 μM<IC50≦0.2 μM; C, 0.2 μM<IC50≦1 μM; D, IC50>1 μM; ND, not determined. The Example # of Table 2 corresponds to the compound example number as illustrated in the Examples section.
Treatment of this cell line with a selective c-MET inhibitor led to induction of apoptosis and inhibition of proliferation, whereas non-MET-amplified cell lines were not affected [Smolen et al., Proc. Natl. Acad. Sci. USA, 103(7):2316-2321 (2006)]. This cell line is thus “driven” by c-MET, and antiproliferative effects correlate very well with the inhibition of c-MET phosphorylation so that the cell proliferation IC50, values can be used as surrogate for the c-MET cell mechanistic IC50, values. Under the assay conditions described herein, the IC50 values correlate nearly 1:1.

[2] = target: T1, RON (Homo sapiens, UniProt Q04912); assay: sfRON cell mechanistic assay (HeLa), phosphorylated RON ELISA; conditions: HeLa cells transfected with sfRON; inhibition of phosphorylated RON; four hours incubation; at least duplicate experiments; read-out: sfRON mech IC50
T1 sequence (Q04912 913-1400): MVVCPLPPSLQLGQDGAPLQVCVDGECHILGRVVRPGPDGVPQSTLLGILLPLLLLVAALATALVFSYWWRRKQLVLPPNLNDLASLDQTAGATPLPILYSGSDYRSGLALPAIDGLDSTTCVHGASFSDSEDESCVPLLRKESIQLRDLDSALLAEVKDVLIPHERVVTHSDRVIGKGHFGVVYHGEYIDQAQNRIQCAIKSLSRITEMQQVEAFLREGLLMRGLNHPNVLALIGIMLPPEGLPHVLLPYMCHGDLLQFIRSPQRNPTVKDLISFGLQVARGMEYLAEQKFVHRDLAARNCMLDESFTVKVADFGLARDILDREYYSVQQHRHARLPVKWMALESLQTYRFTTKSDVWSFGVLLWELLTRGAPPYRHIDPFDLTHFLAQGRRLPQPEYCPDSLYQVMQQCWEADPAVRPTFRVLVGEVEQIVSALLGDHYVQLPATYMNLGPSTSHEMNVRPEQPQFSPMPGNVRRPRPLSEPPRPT
Description: The cellular activity of the compounds of the present invention against RON may be determined by the following procedure. HeLa cells were plated in Falcon 3072 96-well plates in growth media (DMEM, 10% FBS, 1% L-glutamine) at a density of 10000 cells/well and incubated at 37° C., 5% CO2 overnight. The following day, cells were transfected with 0.2 μg sfRON-pcDNA plasmid DNA with 0.5 μL Lipofectamine-2000 per well in the presence of 50 μL OPTI-MEM, incubated at 37° C., 5% CO2 overnight. Costar 3915 96-well assay plates were coated with rabbit Anti-RON antibody at 2.0 μg/mL, sealed, and incubated overnight at 4° C. On the third day, coated plates were washed with PBS and blocked with 3% BSA. For the sfRON transfected cells, one-tenth volume of a 10× concentration of compounds was added to the wells in a 6-point dilution series. The dilution series was composed of an initial 1:5 dilution of a 10 mM DMSO stock solution of compound in DMSO, followed by a 1:10 dilution in growth media, for a final DMSO concentration on cells of 0.5%. Control wells were treated with 0.5% DMSO. The typical range of dilution was 10 μM to 3 nM. Once compound was added to the cells, plates were incubated for four hours at 37° C., 5% CO2. Plates were then washed in PBS, and lysed in triton-based lysis buffer. Lysates were transferred to the blocked capture plates. The phosphorylated RON levels were measured by incubating with a Goat polyclonal antibody against phosphorylated RON ([pYpY1238/1239]) followed by an anti-Goat antibody conjugated to HRP. Signal was measured on a Wallac Victor plate reader with luminance. The DMSO signal of the control wells was defined as 100% and the percent of inhibition of phosphorylated RON was expressed as percent of control. IC50 values were determined from the percent of control data using a standard four-parameter model.
The IC50 values of exemplary compounds of the present invention determined in a sfRON cell mechanistic assay using the HeLa cell line according to the procedures described herein in at least duplicate experiments are abbreviated as follows and are shown in Table 3: A, IC50≦0.2 μM; B, 0.2 μM<IC50≦1.0 μM; C, IC50>1 μM; ND, not determined. The Example # of Table 3 corresponds to the compound example number as illustrated in the Examples section.

[3] = system: Karpas-299 cells; assay: Karpas-299 cell proliferation assay (CellTiter-Glo); conditions: Homo sapiens, 72 h; Karpas-299 cell line (NPM-ALK); 3 days incubation; at least duplicate experiments; read-out: Prolif. IC50
Description: The effect of inhibitors on the proliferation of Karpas-299 cells (DSMZ no. ACC 31) was determined using the following protocol. Karpas-299 cells were plated in 96-well white tissue culture treated plates (Corning 3917) in growth medium (RPMI, 10% FCS) at a density of 5000 cells/well in a total volume of 135 μL and incubated at 37° C., 5% CO2, 95% humidity overnight. The following day, one-tenth volume of a 10× concentration of compounds was added to the wells in an 8-point dilution series. Compounds were serially diluted (1:4) in DMSO from a 10 mM stock solution prior to dilution in growth media to the 10× working concentrations (5% DMSO). Final concentration of DMSO in compound-treated wells was 0.5%. Control wells containing growth media or growth media/0.5% DMSO were included in all test plates. […] Once the compounds were added to the cells, plates were incubated for 3 days at 37° C., 5% CO2 at 95% humidity. After 72 hours, all cells and reagents were equilibrated to room temperature and 15 μL of CellTiter-Glo reagent (Promega # G7573) was added to each well. Plates were shaken on a platform for 10 minutes at room temperature prior to reading luminescence. The value of the signal of the control wells was set as 100% growth and growth inhibition was expressed as percent of control. IC50 values were determined from the percent of control data using a standard four-parameter curve fit equation.
as §1, with “the Karpas-299” for “the MKN45”, “Table 5:” for “Table 2:”, “Table 5” for “Table 2”
The Karpas-299 cell line has a t(2; 5) chromosomal translocation and expresses the NPM-ALK fusion protein, resulting in constitutively active ALK. […] Ther. 6(12):3314-22 (2007)]. With this “ALK-driven” cell line, the cell proliferation IC50 values can thus be used as surrogate for the p-ALK cell mechanistic IC50 values.

Row | SMILES | IC50 [1] [nM] | IC50 [2] [nM] | IC50 [3] [nM]
1 | Cc1c(-c2cnc3[nH]cc([C@H](C)c4c(OC(F)F)ccc(F)c4Cl)c3c2)cnn1[C@H]1CC[C@@H](N2CCC[C@H]2C(=O)O)CC1 [Example 92, 1-{cis-4-[4-(3-{(1S)-1-[2-Chloro-6-(difluoromethoxy)-3-fluorophenyl]ethyl}-1H-pyrrolo[2,3-b]pyridin-5-yl)-5-methyl-1H-pyrazol-1-yl]cyclohexyl}-L-proline] | 200 to 1000 | > 1000 | 200 to 1000
2 | COc1ccc(F)c(Cl)c1[C@@H](C)c1c[nH]c2ncc(-c3cnn([C@H]4CC[C@H](O)CC4)c3C(F)(F)F)cc12 [Example 40, trans-4-[4-{3-[(1S)-1-(2-Chloro-3-fluoro-6-methoxyphenyl)ethyl]-1H-pyrrolo[2,3-b]pyridin-5-yl}-5-(trifluoromethyl)-1H-pyrazol-1-yl]cyclohexanol] | 50 to 200 | > 1000 | > 1000
3 | COc1ccc(F)c(Cl)c1[C@H](CF)c1c[nH]c2ncc(-c3cnn([C@H]4CC[C@H](O)CC4)c3C)cc12 [Example 120, trans-4-(4-{3-[(1R)-1-(2-Chloro-3-fluoro-6-methoxyphenyl)-2-fluoroethyl]-1H-pyrrolo[2,3-b]pyridin-5-yl}-5-methyl-1H-pyrazol-1-yl)cyclohexanol] | 200 to 1000 | > 1000 | 200 to 1000
4 | Cc1c(-c2cnc3[nH]cc([C@H](C)c4c(OC(F)F)ccc(F)c4Cl)c3c2)cnn1[C@H]1CC[C@H](N2CCC[C@H]2C(=O)O)CC1 [Example 91, 1-{trans-4-[4-(3-{(1S)-1-[2-Chloro-6-(difluoromethoxy)-3-fluorophenyl]ethyl}-1H-pyrrolo[2,3-b]pyridin-5-yl)-5-methyl-1H-pyrazol-1-yl]cyclohexyl}-L-proline] | 50 to 200 | > 1000 | 50 to 200
5 | Cc1c(-c2cnc3[nH]cc([C@H](C)c4c(OC(F)F)ccc(F)c4Cl)c3c2)cnn1[C@H]1CC[C@H](N(C)CC(=O)O)CC1 [Example 89, N-{trans-4-[4-(3-{(1S)-1-[2-Chloro-6-(difluoromethoxy)-3-fluorophenyl]ethyl}-1H-pyrrolo[2,3-b]pyridin-5-yl)-5-methyl-1H-pyrazol-1-yl]cyclohexyl}-N-methylglycine] | ≤ 50 | > 1000 | 50 to 200
6 | N#CC(c1c(Cl)ccc(F)c1Cl)c1c[nH]c2ncc(-c3cnn([C@H]4CC[C@H](O)CC4)c3F)cc12 (stereo partly drawn) [Example 109] | 50 to 200 | 200 to 1000 | 200 to 1000
7 | Cc1c(-c2cnc3[nH]cc([C@H](C)c4c(OC(F)F)ccc(F)c4Cl)c3c2)cnn1[C@H]1CC[C@@H](O)CC1 [Example 86, cis-4-[4-(3-{(1S)-1-[2-Chloro-6-(difluoromethoxy)-3-fluorophenyl]ethyl}-1H-pyrrolo[2,3-b]pyridin-5-yl)-5-methyl-1H-pyrazol-1-yl]cyclohexanol] | ≤ 50 | 200 to 1000 | ≤ 50

Further lines, results first:

Row | IC50 [1] [nM] | IC50 [2] [nM] | IC50 [3] [nM] | SMILES
8 | ≤ 50 | 200 to 1000 | ≤ 50 | Cc1c(-c2cnc3[nH]cc([C@H](C)c4c(OC(F)F)ccc(F)c4Cl)c3c2)cnn1C1CCC(=O)CC1 [Example 88, 4-[4-(3-{(1S)-1-[2-Chloro-6-(difluoromethoxy)-3-fluorophenyl]ethyl}-1H-pyrrolo[2,3-b]pyridin-5-yl)-5-methyl-1H-pyrazol-1-yl]cyclohexanone]
9 | ≤ 50 | 200 to 1000 | ≤ 50 | COc1ccc(F)c(Cl)c1[C@@H](C)c1c[nH]c2ncc(-c3cnn([C@H]4CC[C@H](N)CC4)c3C)cc12 [Example 58, trans-4-(4-{3-[(1S)-1-(2-Chloro-3-fluoro-6-methoxyphenyl)ethyl]-1H-pyrrolo[2,3-b]pyridin-5-yl}-5-methyl-1H-pyrazol-1-yl)cyclohexanamine]
10 | ≤ 50 | ≤ 200 | ≤ 50 | Cc1c(-c2cnc3[nH]cc([C@H](C)c4c(OC(F)F)ccc(F)c4Cl)c3c2)cnn1[C@H]1CC[C@H](N)CC1 [Example 93, trans-4-[4-(3-{(1S)-1-[2-Chloro-6-(difluoromethoxy)-3-fluorophenyl]ethyl}-1H-pyrrolo[2,3-b]pyridin-5-yl)-5-methyl-1H-pyrazol-1-yl]cyclohexanamine]
